The structures appear in SMILES notation.

The target in one test is T1, human RORγ (Homo sapiens, UniProt P51449).
T1 construct: from Ser253 to Lys518 for human RORγ; expressed in transfected cells; host or cells: CHO cells (transient co-transfection with pG5-Luc)
T1 sequence (P51449 253-518): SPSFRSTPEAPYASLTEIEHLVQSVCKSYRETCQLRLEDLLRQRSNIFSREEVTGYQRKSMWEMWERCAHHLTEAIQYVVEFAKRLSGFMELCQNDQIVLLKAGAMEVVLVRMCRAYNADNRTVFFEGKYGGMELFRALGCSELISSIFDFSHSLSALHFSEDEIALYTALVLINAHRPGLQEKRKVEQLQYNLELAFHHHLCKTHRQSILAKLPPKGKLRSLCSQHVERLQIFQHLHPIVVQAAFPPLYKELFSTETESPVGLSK
The experiment in a line: In-vitro reporter gene assay for inhibitory activity against RORγ transcription, Test Method A (GAL4-hRORγ LBD / pG5-Luc in CHO cells). The test is classed as cell-based. To be noted: luciferase reporter, 2 days. The protocol:
(§1) In-Vitro Assay for Inhibitory Activity Against RORγ Transcription
(§2) Inhibitory activity against RORγ transcription was assessed for test compounds by either of the following Test Method A or B of reporter gene assay.
(§3) cDNAs encoding human and mouse RORγ ligand binding domains (LBD) were obtained based on the sequences of human RORγ (Genbank registered number NM_005060.3) and mouse RORγ (Genbank registered number NM_011281.2) (LBD sequences: from Ser253 to Lys518 for human RORγ; from Ile251 to Lys516 for mouse RORγ).
(§4) LBD cDNAs of human and mouse RORγ were inserted into pFA-CMV vector (Stratagene), which expresses GAL4-DNA binding domain fusion protein. The resulting plasmids are hereinafter referred to as GAL4-hRORγ plasmid and GAL4-mRORγ plasmid, respectively.
(§5) GAL4-hRORγ plasmid or GAL4-mRORγ plasmid was transiently co-transfected into Chinese hamster ovary cells (CHO cells) with pG5-Luc (Promega), reporter plasmid expressing firefly luciferase in a GAL4-dependent manner.
(§6) TransIT (Registered trademark) CHO Transfection Kit (Mirus) was used to co-transfect CHO cells with the plasmids. One day prior to the assay, CHO cells were suspended in HAM F-12 Nutrient medium containing 10% (v/v) fetal bovine serum and seeded at 6×10^6 cells per 175 cm^2 cell culture flask each. 54 μL of TransIT (Registered trademark) CHO reagent was added into a 15 mL tube containing 1.16 mL of HAM F-12 Nutrient medium without fetal bovine serum, and then mixed and incubated at room temperature for 10 minutes. 36 μL of a plasmid solution containing 400 ng of GAL4-hRORγ plasmid, 9000 ng of pG5-Luc plasmid, and 8600 ng of pcDNA3 plasmid were added into the tube and mixed gently. In the case of mouse assay, a plasmid solution containing 250 ng of GAL4-mRORγ plasmid, 9000 ng of pG5-Luc plasmid, and 8750 ng of pcDNA3 plasmid was added, instead. The mixture was incubated at room temperature for 10 minutes. 9 μL each of CHO Mojo Reagent were then added into each tube and mixed gently. The mixture was incubated at room temperature for 10 minutes. The resulting transfection reagent was applied to the cell culture. After incubation at 37° C., 5% CO2 for 4 hours, the plasmid-transfected CHO cells were harvested by trypsin treatment. The collected cells were resuspended in culture medium and plated into a 384-well-white plate at 8,000 cells/50 μL/well. The plate was let stand at room temperature for 1 hour and then further incubated at 37° C., 5% CO2 for 3 hours. A test compound was dissolved in DMSO to obtain a concentration of 10 mM. Each solution was serially diluted with DMSO and further diluted with culture medium just before use. The test compound solutions were added. to the cells in the plate at 8 different concentrations. The final concentration of DMSO was 0.2% (v/v). After the addition of test compound, the cells were incubated at […], 5% CO2 for 2 days.
(§7) RORγ transcriptional activity was detected as the intracellular luciferase activity using SteadyLite HTS Reporter Gene Assay System (Perkin Elmer). SteadyLite Reagent was diluted five-fold with Extension buffer (10 mM Tricine, 0.2% (w/v) bovine serum albumin, 0.02% (v/v) Tween-20) to obtain a luciferase substrate solution. After the measurement of the cell viability with Resazurin, the medium was removed in the plate and the luciferase substrate solution was added thereto. After the incubation at room temperature for 10 minutes, luminescence of each well was measured with a microplate reader. The luciferase activity derived from the luminescence count in a vehicle-control well treated with 0.2% DMSO alone was defined as 100%, and the luciferase activity after treatment with the test compound was calculated as a percentage, %-of-control, based on the value of the vehicle-control. An EC50 value of the test compound was calculated by curve fitting with GraphPad Prism. The luminescence counts at the concentration of test compound where cytotoxicity was observed were excluded from data analysis. […]

For a further test, the target named is T2, mouse RORγ (Mus musculus, UniProt P51450).
T2 construct: from Ile251 to Lys516 for mouse RORγ; expressed in transfected cells; host or cells: CHO cells (transient co-transfection with pG5-Luc)
T2 sequence (P51450 251-516): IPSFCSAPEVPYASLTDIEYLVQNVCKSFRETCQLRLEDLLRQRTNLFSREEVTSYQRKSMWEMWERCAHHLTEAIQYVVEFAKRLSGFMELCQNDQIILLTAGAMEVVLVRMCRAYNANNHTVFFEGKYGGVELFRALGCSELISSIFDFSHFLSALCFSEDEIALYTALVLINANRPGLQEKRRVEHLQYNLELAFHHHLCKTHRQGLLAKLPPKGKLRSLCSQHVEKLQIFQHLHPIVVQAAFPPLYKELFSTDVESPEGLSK
Kind of test: In-vitro reporter gene assay for inhibitory activity against RORγ transcription, Test Method A (GAL4-mRORγ LBD / pG5-Luc in CHO cells). The test is classed as cell-based. To be noted: luciferase reporter, 2 days. How it is done: as §1, §2, §3, §4, §5, §6, §7

As for `C[C@@H]1CC2=CN(C34CC(C(=O)O)(C3)C4)C(=O)NC2(c2ccc(CCC(C)(C)C)c(Cl)c2)CO1` (single isomer, unassigned) [Example 72], the EC50 at human RORγ came to 0.028 µM; on mouse RORγ, 0.015 µM.

Take `CC(C)(C)CCc1ccc(C23CCC(CCO)C2=CN(CCC(=O)O)C(=O)N3)cc1Cl` (single isomer, unassigned) [Example 25]: the EC50 at human RORγ worked out at 0.092 µM; at mouse RORγ, 0.105 µM.

Take `COC1CC[C@]2(c3ccc(CCC(C)(C)C)c(Cl)c3)NC(=O)N(CCC(=O)O)C=C2C1` (single isomer, unassigned) [Example 67]: the figures for the EC50 on human RORγ and at mouse RORγ were 4.72 µM and 8.34 µM, respectively.

On to `CC(C)(C)CCc1ccc(C23CCC(C(F)(F)F)CC2=CN(C24CC(C(=O)O)(C2)C4)C(=O)N3)cc1Cl` (single isomer, unassigned) [Example 75], for which the results for the EC50 on human RORγ and on mouse RORγ were 0.061 µM and 0.038 µM, respectively.

Consider `C[C@H]1CC2=CN(CCC(=O)O)C(=O)NC2(c2ccc(CCC(C)(C)C)c(Cl)c2)CO1` (single isomer, unassigned) [Example 70], for which the results for the EC50 at human RORγ and on mouse RORγ were 0.541 µM and 0.516 µM, respectively.

Regarding `CC(C)(C)CCc1ccc([C@]23COC(CO)C2=CN(CCC(=O)O)C(=O)N3)cc1Cl` (single isomer, unassigned) [Example 17], the EC50 on human RORγ and on mouse RORγ was above 20 µM in each case.

Regarding `CC(C)(C)CCc1ccc([C@@]23COC(COCc4ccccc4)C2=CN(CCC(=O)O)C(=O)N3)cc1Cl` (single isomer, unassigned) [Example 16], the EC50 at human RORγ was found to be 0.755 µM; at mouse RORγ, 0.774 µM.

On to `CC(C)(C)CCc1ccc(C23CC(C)(C)CC2=CN(CCC(=O)O)C(=O)N3)cc1Cl` (single isomer, unassigned) [Example 33], for which the EC50 is 2.96 µM at human RORγ and above 3.2 µM at mouse RORγ.

For the molecule `CC(C)(C)CCc1ccc(C23CCC(CC#N)C2=CN(CCC(=O)O)C(=O)N3)cc1Cl` (racemic) [Example 31], the EC50 at human RORγ and at mouse RORγ was 0.048 µM each time.

As to `CC(C)(C)CCc1ccc(C23CCCC2=CNC(=O)N3)cc1Cl` (racemic) [Example 23], the values for the EC50 at human RORγ and on mouse RORγ were 0.224 µM and 0.106 µM, respectively.

Consider `CC(C)(C)CCc1ccc([C@]23CCCCC2=CN(C24CC(C(=O)O)(C2)C4)C(=O)N3)cc1Cl` [Example 53], for which the EC50 was above 3.2 µM at human RORγ and 2.73 µM at mouse RORγ.

With `CCOC(=O)CCN1C=C2C(CCN(C)C)CCCC2(c2ccc(CCC(C)(C)C)c(Cl)c2)NC1=O` (racemic) [Example 50], the EC50 on human RORγ was above 8 µM; at mouse RORγ it was 7.48 µM.

For `CC(C)(C)CCc1ccc(C23CCC(CO)C2=CN(CCC(=O)O)C(=O)N3)cc1Cl` (single isomer, unassigned) [Example 29], the values for the EC50 at human RORγ and at mouse RORγ were 0.173 µM and 0.103 µM, respectively.

Regarding `CC(C)(C)CCc1ccc([C@@]23COC(CO)C2=CN(CCC(=O)O)C(=O)N3)cc1Cl` (single isomer, unassigned) [Example 18], the EC50 on human RORγ turned out to be 0.773 µM; on mouse RORγ, 0.452 µM.

For the molecule `CC(C)(C)CCc1ccc(C23CCC(C)(C)C2=CN(CCC(=O)O)C(=O)N3)cc1Cl` (single isomer, unassigned) [Example 4], the EC50 at human RORγ worked out at 1.02 µM; at mouse RORγ it was 1.01 µM.

As for `CC1CCC2(c3ccc(CCC(C)(C)C)c(Cl)c3)NC(=O)N(CCC(=O)O)C=C2C1` (single isomer, unassigned) [Example 69], the EC50 on human RORγ was found to be 0.015 µM; on mouse RORγ it was 0.027 µM.

`CC(C)(C)CCc1ccc([C@]23CCC(C)(C)C2=CN(c2ccc(C(=O)O)cc2)C(=O)N3)cc1Cl` (single isomer, unassigned) [Example 9]: the values for the EC50 at human RORγ and at mouse RORγ were 0.819 µM and 1.47 µM, respectively.

`CC1CCC[C@@]2(c3ccc(CCC(C)(C)C)c(Cl)c3)NC(=O)N(C34CC(C(=O)O)(C3)C4)C=C12` (single isomer, unassigned) [Example 79]: the EC50 at human RORγ turned out to be 0.018 µM; on mouse RORγ, 0.022 µM.

Turning to `CC1CCC2(c3ccc(CCC(C)(C)C)c(Cl)c3)NC(=O)N(CCC(=O)O)C=C2C1` (single isomer, unassigned) [Example 66], the EC50 on human RORγ was found to be 0.024 µM; at mouse RORγ, 0.03 µM.

In the case of `CC(C)(C)CCc1ccc(C23CCC(C)(C)C2=CN(c2ccc(C(=O)O)cc2)C(=O)N3)cc1Cl` (single isomer, unassigned) [Example 10, 4-{7a-[3-Chloro-4-(3,3-dimethyl-butyl)phenyl]-5,5-dimethyl-2-oxo-1,2,5,6,7,7a-hexahydro-cyclopentapyrimidin-3-yl}benzoic acid], the EC50 was 0.016 µM on human RORγ and 0.03 µM on mouse RORγ.

On to `CCOC(=O)CCN1C=C2CN(C(=O)OC(C)(C)C)CC2(c2ccc(CCC(C)(C)C)c(Cl)c2)NC1=O` (racemic) [Example 13], for which the results for the EC50 on human RORγ and on mouse RORγ were 5.7 µM and 5.37 µM, respectively.

Take `CC(C)(C)CCc1ccc(C23CCC(CCOCc4ccccc4)C2=CN(CCC(=O)O)C(=O)N3)cc1Cl` (single isomer, unassigned) [Example 26]: the EC50 came to 0.351 µM on human RORγ and 0.243 µM at mouse RORγ.

`CC(C)(C)CCc1ccc(C23COC(C)(C)C2=CN(c2ccc(C(=O)O)cc2)C(=O)N3)cc1Cl` (single isomer, unassigned) [Example 8]: the results for the EC50 at human RORγ and on mouse RORγ were 0.427 µM and 0.381 µM, respectively.

As for `CC1CCCC2(c3ccc(CCC(C)(C)C)c(Cl)c3)NC(=O)N(CCC(=O)O)C=C12` (racemic) [Example 57], the EC50 on human RORγ is 0.034 µM; at mouse RORγ it was 0.021 µM.

Turning to `CC(C)(C)CCc1ccc(C23COC(COC(C)(C)C)C2=CN(CCC(=O)O)C(=O)N3)cc1Cl` (single isomer, unassigned) [Example 22], the EC50 at human RORγ is 16.2 µM; on mouse RORγ, above 8 µM.

In the case of `CC(C)(C)CCc1ccc(C23CCC(C)(C)C2=CN(CCCC(=O)O)C(=O)N3)cc1` (racemic) [Example 2], the EC50 on human RORγ was 0.03 µM; at mouse RORγ it was 0.022 µM.
